Reference: patent publication US20190015484A1, “NICOTINE-DEGRADING ENZYMES FOR TREATING NICOTINE ADDICTION AND NICOTINE POISONING” (priority 2015, published 2019)
Like-named read-outs stand apart in the source and are kept apart here.

What was measured:
[1] = test system: Swiss Webster mice; test: Toxicity of reaction product to mice; assay type: in vivo, mouse
Experimental: Short-term experiments were performed by administrating 35, 70 140 ng of […] to male Swiss Webster mice (about 20 g, n=4 for each group) daily. Their viability and behavior was recorded.
Long-term experiments were performed by administrating 200 ng to the same species of mice (n=7) every other day for 5 weeks. At the end of the 5th week, the mice were euthanized and autopsied.
The clinical utility of an enzyme also relates to the toxicity and addictive properties of the reaction products. […] However, it has been reported as a likely precursor to 4-(methylnitrosamino)-1-(3-pyridyl)-1-butanone (NNK), a potential carcinogen.^20 To investigate any harmful effects of 4, toxicology studies were performed in which mice were administered pseudooxynicotine (4).
Mice received 35, 70 or 140 ng of compound 4 daily, which is representative of the typical range of nicotine amounts (4-72 ng/mL) found in smokers,^19 if fully converted to compound 4. […] In addition, the long-term exposure (5-weeks) of 4 was evaluated where the mice were dosing every other day with 200 ng compound 4 per dose.

[2] = humans, cited from earlier work
[3] = target: neuronal nicotinic acetylcholine receptors (nAChR); details: read-out: Ki for nAChr; cited from earlier work
[4] = target: neuronal nicotinic acetylcholine receptors (nAChR); details: cited from earlier work

SMILES	health and autopsy, long-term exposure ([1]; mice, 200 ng every other day, 5 weeks)	health and behavior, short-term ([1]; mice, 35, 70 or 140 ng daily, five days)	terminal half-life ([2]; regular smoking) [h]	elimination half-life ([2]; tobacco use) [h]	Ki [3] [nM]	EC50 ([4]; read-out: EC50 for activation of nAChr, activation) [nM]	EC50 ([4]; read-out: EC50 for desensitization of nAChr, desensitization) [nM]
CNCCCC(=O)c1cccnc1 [compound 4, 4-(methylamino)-1-(pyridine-3-yl)butan-1-one]	remained healthy and autopsies did not reveal any sign of neoplasia or organ damage	none of the mice exhibited any evidence of health or behavioral problems	–	–	–	–	–
CN1CCC[C@H]1c1cccnc1 [nicotine, (S)-(−)-nicotine]	–	–	≥ 20	2 to 3	1 to 12	60	2.8
